Assay results published in ChEMBL document CHEMBL1201862, “PubChem BioAssay data set” (2004).
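Each compound was tested at five concentrations against cells in 96-well plates for 48 hours. The concentration for 50% growth inhibition is given as GI50.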 Calls of active or inactive are those of the source. Rule as the data show it: active = GI50 up to about 1.1 µM and inactive = higher.

Key:
Assay in all cases: NCI anticancer screen, dose series, 48 h
CAKI-1 = system: CAKI-1
SNB-19 = system: SNB-19
SN12C = system: SN12C
HOP-92 = system: HOP-92
TK-10 = system: TK-10
UACC-62 = system: UACC-62
OVCAR-4 = system: OVCAR-4
Malme-3M = system: Malme-3M
SK-OV-3 = system: SK-OV-3
A498 = system: A498
HCT-15 = system: HCT-15
SF-539 = system: SF-539
HCT-116 = system: HCT-116
U-251 = system: U-251
SNB-75 = system: SNB-75
SF-295 = system: SF-295
NCI-H522 = system: NCI-H522
SF-268 = system: SF-268

## O=C(/C=C/c1ccccc1)c1cc(C(=O)/C=C/c2ccccc2)c(O)cc1O
CAKI-1
  GI50: > 100 µM (inactive)
SNB-19
  GI50: > 100 µM (inactive)
SN12C
  GI50: > 100 µM (inactive)
HOP-92
  GI50: > 100 µM (inactive)
TK-10
  GI50: > 100 µM (inactive)
UACC-62
  GI50: 49.8 µM (inactive)
OVCAR-4
  GI50: > 10 µM (inactive)
Malme-3M
  GI50: > 100 µM (inactive)
SK-OV-3
  GI50: > 100 µM (inactive)
A498
  GI50: 31.9 µM (inactive)
HCT-15
  GI50: > 100 µM
SF-539
  GI50: 47.3 µM (inactive)
HCT-116
  GI50: 60.1 µM (inactive)

## O=c1ccccc2cccc(O)c12
CAKI-1
  GI50: > 100 µM (inactive)
SNB-19
  GI50: > 100 µM (inactive)
SN12C
  GI50: > 100 µM (inactive)
HOP-92
  GI50: 84.1 µM (inactive)
TK-10
  GI50: > 100 µM (inactive)
UACC-62
  GI50: > 100 µM (inactive)
OVCAR-4
  GI50: > 100 µM (inactive)
U-251
  GI50: > 100 µM (inactive)
SK-OV-3
  GI50: > 100 µM (inactive)
A498
  GI50: > 100 µM (inactive)
HCT-15
  GI50: > 100 µM
SNB-75
  GI50: > 100 µM (inactive)
SF-539
  GI50: > 100 µM (inactive)
HCT-116
  GI50: > 100 µM (inactive)
SF-295
  GI50: > 100 µM (inactive)

## COc1cc(C2C(Cl)C(=O)N2NC(=O)c2ccc(N)cc2)ccc1O (configuration not stated)
CAKI-1
  GI50: 25.5 µM (inactive)
SNB-19
  GI50: 25.3 µM (inactive)
SN12C
  GI50: 32 µM (inactive)
HOP-92
  GI50: 25.5 µM (inactive)
TK-10
  GI50: > 100 µM (inactive)
UACC-62
  GI50: 64.1 µM (inactive)
OVCAR-4
  GI50: 81.3 µM (inactive)
U-251
  GI50: 18 µM (inactive)
Malme-3M
  GI50: 16.5 µM (inactive)
SK-OV-3
  GI50: 60.5 µM (inactive)
A498
  GI50: > 100 µM (inactive)
HCT-15
  GI50: 39.9 µM
SNB-75
  GI50: 75.5 µM (inactive)
SF-539
  GI50: 26.5 µM (inactive)
NCI-H522
  GI50: 19.8 µM (inactive)
HCT-116
  GI50: 22.9 µM (inactive)
SF-295
  GI50: 67.8 µM (inactive)

## Cc1cc2c(c(C(N)=O)c1C)-c1cccc(Cl)c1C2=O
SNB-19
  GI50: 64.1 µM (inactive)
SN12C
  GI50: > 100 µM (inactive)
HOP-92
  GI50: > 100 µM (inactive)
TK-10
  GI50: > 100 µM (inactive)
UACC-62
  GI50: > 100 µM (inactive)
OVCAR-4
  GI50: > 100 µM (inactive)
SF-268
  GI50: > 100 µM (inactive)
U-251
  GI50: > 100 µM (inactive)
Malme-3M
  GI50: > 100 µM (inactive)
SK-OV-3
  GI50: > 100 µM (inactive)
A498
  GI50: > 100 µM (inactive)
HCT-15
  GI50: > 100 µM
SNB-75
  GI50: 6.7 µM (inactive)
SF-539
  GI50: > 100 µM (inactive)
NCI-H522
  GI50: 27 µM (inactive)
HCT-116
  GI50: > 100 µM (inactive)
SF-295
  GI50: > 100 µM (inactive)

## COc1ccc(OCC(=O)O)c2c1CCC(C)C2=O (configuration not stated)
CAKI-1
  GI50: > 100 µM (inactive)
SNB-19
  GI50: > 100 µM (inactive)
SN12C
  GI50: > 100 µM (inactive)
TK-10
  GI50: > 100 µM (inactive)
UACC-62
  GI50: > 100 µM (inactive)
OVCAR-4
  GI50: > 100 µM (inactive)
SF-268
  GI50: > 100 µM (inactive)
U-251
  GI50: > 100 µM (inactive)
Malme-3M
  GI50: > 100 µM (inactive)
SK-OV-3
  GI50: > 100 µM (inactive)
A498
  GI50: > 100 µM (inactive)
HCT-15
  GI50: > 100 µM
SF-539
  GI50: > 100 µM (inactive)
NCI-H522
  GI50: > 100 µM (inactive)
HCT-116
  GI50: > 100 µM (inactive)
SF-295
  GI50: > 100 µM (inactive)

## CN(C)/C=N\c1cc[nH]c(=O)n1
CAKI-1
  GI50: > 100 µM (inactive)
SN12C
  GI50: > 100 µM (inactive)
HOP-92
  GI50: > 100 µM (inactive)
TK-10
  GI50: > 100 µM (inactive)
UACC-62
  GI50: > 100 µM (inactive)
OVCAR-4
  GI50: > 100 µM (inactive)
SF-268
  GI50: > 100 µM (inactive)
U-251
  GI50: > 100 µM (inactive)
Malme-3M
  GI50: > 100 µM (inactive)
SK-OV-3
  GI50: > 100 µM (inactive)
A498
  GI50: > 100 µM (inactive)
HCT-15
  GI50: > 100 µM
SNB-75
  GI50: > 100 µM (inactive)
SF-539
  GI50: > 100 µM (inactive)
NCI-H522
  GI50: > 100 µM (inactive)
HCT-116
  GI50: > 100 µM (inactive)
SF-295
  GI50: > 100 µM (inactive)

## Nc1ccc2nc(-c3cccc(Cl)c3)cc(O)c2c1
SNB-19
  GI50: 5.83 µM (inactive)
SN12C
  GI50: 8.38 µM (inactive)
HOP-92
  GI50: 2.84 µM (inactive)
TK-10
  GI50: 2.65 µM (inactive)
UACC-62
  GI50: 3.14 µM (inactive)
U-251
  GI50: 3.2 µM (inactive)
Malme-3M
  GI50: 3.26 µM (inactive)
SK-OV-3
  GI50: 4.82 µM (inactive)
HCT-15
  GI50: 3.19 µM
SNB-75
  GI50: 2.15 µM (inactive)
SF-539
  GI50: 2.11 µM (inactive)
NCI-H522
  GI50: 2.34 µM (inactive)
